Assay [1] addresses T1, mineralocorticoid receptor (MR) (Homo sapiens, UniProt P08235).
T1 construct: expressed in transfected cells; host or cells: PathHunter NHR CHO-K1 cells
T1 sequence (P08235 1-984): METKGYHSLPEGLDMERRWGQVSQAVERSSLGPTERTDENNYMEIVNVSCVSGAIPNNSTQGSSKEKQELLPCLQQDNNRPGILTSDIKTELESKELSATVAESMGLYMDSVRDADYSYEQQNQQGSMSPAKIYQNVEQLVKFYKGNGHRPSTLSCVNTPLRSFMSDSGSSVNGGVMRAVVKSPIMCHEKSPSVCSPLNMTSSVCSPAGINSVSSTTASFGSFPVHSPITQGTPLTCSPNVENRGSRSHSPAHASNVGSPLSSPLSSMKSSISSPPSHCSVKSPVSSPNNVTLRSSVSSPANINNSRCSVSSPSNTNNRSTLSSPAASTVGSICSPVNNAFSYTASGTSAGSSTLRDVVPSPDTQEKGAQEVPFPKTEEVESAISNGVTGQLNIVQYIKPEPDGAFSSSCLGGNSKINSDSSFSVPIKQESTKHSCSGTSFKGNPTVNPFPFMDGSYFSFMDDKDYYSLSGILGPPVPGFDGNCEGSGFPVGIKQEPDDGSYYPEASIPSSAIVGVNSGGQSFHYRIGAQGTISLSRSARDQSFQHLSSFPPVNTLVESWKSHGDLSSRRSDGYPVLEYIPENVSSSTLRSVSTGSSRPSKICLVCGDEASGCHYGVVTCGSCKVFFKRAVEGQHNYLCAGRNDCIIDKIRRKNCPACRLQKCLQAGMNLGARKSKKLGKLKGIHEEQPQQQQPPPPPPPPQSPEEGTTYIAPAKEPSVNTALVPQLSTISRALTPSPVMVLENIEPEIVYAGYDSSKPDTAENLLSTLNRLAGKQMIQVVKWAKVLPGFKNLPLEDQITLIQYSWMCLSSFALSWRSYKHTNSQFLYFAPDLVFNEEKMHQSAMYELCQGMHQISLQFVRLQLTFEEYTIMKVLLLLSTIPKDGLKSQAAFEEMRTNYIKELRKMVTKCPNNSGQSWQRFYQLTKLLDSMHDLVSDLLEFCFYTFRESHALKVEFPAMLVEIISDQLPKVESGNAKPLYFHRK
Kind of assay: Mineralocorticoid receptor agonist activity, PathHunter NHR nuclear translocation assay. It counts as cell-based. To be noted: PathHunter NHR CHO-K1 cells. As for the experimental part: 3. Mineralocorticoid Receptor Agonist Activity Assay The mineralocorticoid receptor (MR) agonist activity of small-molecule steroids was tested using a PathHunter® NHR nuclear translocation assay. PathHunter NHR CHO-K1 cells were plated onto a 384-well white-wall microplate and co-incubated with test small-molecule steroids at 37° C. in 5% CO2 to induce reactions. Assay signals were generated using the PathHunter assay reagent mix. After one hour of incubation at room temperature, chemiluminescent signals were detected. The data were analyzed using four-parameter curve fitting to generate EC50 values.

Assay [2] addresses T2, human recombinant GR (Homo sapiens, UniProt P04150).
T2 sequence (P04150 1-777): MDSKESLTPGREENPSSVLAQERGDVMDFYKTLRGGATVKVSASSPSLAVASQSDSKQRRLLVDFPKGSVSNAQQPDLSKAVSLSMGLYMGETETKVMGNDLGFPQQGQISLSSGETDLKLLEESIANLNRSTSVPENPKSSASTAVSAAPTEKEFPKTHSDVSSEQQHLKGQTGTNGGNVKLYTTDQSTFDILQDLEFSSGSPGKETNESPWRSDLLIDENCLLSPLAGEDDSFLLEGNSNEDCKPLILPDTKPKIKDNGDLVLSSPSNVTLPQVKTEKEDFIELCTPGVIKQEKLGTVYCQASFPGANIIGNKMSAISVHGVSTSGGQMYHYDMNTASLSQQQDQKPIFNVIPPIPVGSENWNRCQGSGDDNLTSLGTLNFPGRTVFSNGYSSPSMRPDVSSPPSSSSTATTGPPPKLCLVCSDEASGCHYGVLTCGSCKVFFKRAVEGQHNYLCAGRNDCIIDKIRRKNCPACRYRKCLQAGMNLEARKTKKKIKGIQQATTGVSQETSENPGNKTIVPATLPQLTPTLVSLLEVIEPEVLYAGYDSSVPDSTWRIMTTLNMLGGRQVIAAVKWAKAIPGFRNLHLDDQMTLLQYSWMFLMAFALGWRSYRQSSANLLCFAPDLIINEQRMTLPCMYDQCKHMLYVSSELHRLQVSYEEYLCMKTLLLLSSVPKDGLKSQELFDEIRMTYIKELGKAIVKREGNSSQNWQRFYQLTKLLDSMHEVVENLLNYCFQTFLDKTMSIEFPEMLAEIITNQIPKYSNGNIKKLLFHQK
The assay can be described thus: human glucocorticoid NHR (radiolabeled agonist) binding assay. The conditions noted are these: competition with 5 nM [3H]dexamethasone, 4° C., 24 h. As for the experimental part:
2. Glucocorticoid Receptor Binding Assay
The assays were based on the following principle: Different concentrations of a small-molecule steroid and 5 nM [3H]dexamethasone are incubated with human recombinant GR at 4° C. for 24 h. The small-molecule steroid competes with [3H]dexamethasone for binding to human GR. The binding activity of the small-molecule steroid for GR can be calculated by counting the number of [3H]dexamethasone molecules that bind specifically to the receptor.

Assay [3] relates to GRE reporter gene in A549 cells. The assay can be described thus: GRE reporter gene assay in A549 cells (MMTV-Luc). The assay is classed as cell-based. To be noted: 24 h; for EC50: Homo sapiens. The method, then: 4. GRE reporter gene assay A549 cells were plated (40,000 cells/96-well plate), transfected with pGL4.36 (MMTV-Luc, 100 ng/well) using lipo3000, cultured overnight and then incubated with different concentrations of small-molecule steroids. After 24 h, the expression of luciferase in the reporter gene system was detected using the Bright-Glo (promega) assay reagent.
For orientation: A reporter such as luciferase makes a cellular process visible.

Assay [4] relates to mouse collagen antibody-induced arthritis (CAIA) model. Kind of assay: Mouse collagen antibody-induced arthritis (CAIA) model. It counts as in vivo. To be noted: 10 mg/kg intraperitoneally twice a week; FIG. 6. The method, then: Male balb/c mice, 6 w, purchased from the Laboratory Animal Management Department, Shanghai Institute of Planned Parenthood Research. Housing environment: SPF; production license SCXK (Shanghai) 2018-0006; Balb/c mouse certification number: 20180006023393.
Upon arrival, the test animals were acclimatized for 7 days and randomly grouped. On day 0, each group of mice was intraperitoneally injected with 1.5 mg/mouse of type II collagen antibody cocktail (purchased from Chondrex Inc.) for modeling except for the control group. On day 3, each group of mice was intraperitoneally injected with […] of LPS (100 μL) to boost the immune response except for the control group. Administration to each group of mice began on day 5, and limb arthritis was scored every 1-3 days. Mice were dosed according to the following administration regimens. The severity of arthritis in each group of mice was semi-quantitatively scored every 1-3 days and further, the anti-inflammatory activity of anti-TNF-ADCs was evaluated.

`C[C@]12C=CC(=O)C=C1CC[C@@H]1[C@@H]2[C@@H](O)C[C@@]2(C)[C@H]1C[C@H]1O[C@@H](c3ccc(C(=O)c4cccc(N)c4)cc3)O[C@]12C(=O)CO` [Compound 2-A] had an EC50 in assay [1] of 220 nM. For the same molecule, in assay [2], the IC50 was determined as 6.69 nM.
Regarding `C[C@]12C=CC(=O)C=C1CC[C@@H]1[C@@H]2[C@@H](O)C[C@@]2(C)[C@H]1C[C@H]1O[C@@H](c3ccc(Cc4cccc(N)c4)cc3)O[C@]12C(=O)CO` [A-A, reference compound], in assay [3], the “GRE reporter gene Emax” value was determined as 1.45E6 RLU and a half-maximal response (EC50) required 0.6 nM.
For adalimumab [Humira], the “anti-inflammatory activity in the CAIA model” value in assay [4] was “weak anti-inflammatory activity”.
`C[C@]12C=CC(=O)C=C1CC[C@@H]1[C@@H]2[C@@H](O)C[C@@]2(C)[C@H]1C[C@H]1O[C@@H](c3ccc(-c4ccc(-c5cccc(N)c5)cc4)cc3)O[C@]12C(=O)CO` [Compound 1-A] showed an EC50 in assay [1] above 200000 nM. In assay [3], the “GRE reporter gene Emax” value worked out at 7.67E5 RLU and the midpoint of the response, the EC50, lay at 22.6 nM. The IC50 in assay [2] is 4.37 nM.
In the same order, the values of `C[C@]12C=CC(=O)C=C1CC[C@@H]1[C@@H]2[C@@H](O)C[C@@]2(C)[C@H]1C[C@H]1O[C@@H](c3ccc(C(F)(F)c4cccc(N)c4)cc3)O[C@]12C(=O)CO` [Compound 4-A] are 260 nM, 1.69E6 RLU, 2.16 nM and 2.12 nM.
For `C[C@]12C=CC(=O)C=C1CC[C@H]1[C@@H]3C[C@H]4O[C@@H](c5ccc(C(=O)c6cccc(N)c6)cc5)O[C@@]4(C(=O)CO)[C@@]3(C)C[C@H](O)[C@@]12F` [Compound 5-A], in assay [3], the “GRE reporter gene Emax” value is 2.3E7 RLU and the response was half-maximal at 4.3 nM (EC50). Also, in assay [2], the IC50 is 5.23 nM.
Molecule `C[C@]12C=CC(=O)C=C1CC[C@@H]1[C@@H]2[C@@H](O)C[C@@]2(C)[C@H]1C[C@H]1O[C@@H](c3ccc(Cc4cccc5c(N)cccc45)cc3)O[C@]12C(=O)CO` [Compound 3-A] yielded an EC50 in assay [1] of 190 nM. In assay [3], the “GRE reporter gene Emax” value worked out at 1.53E6 RLU and the EC50 came out at 1.47 nM. The IC50 in assay [2] was determined as 2.24 nM.

Usually EC50 stands for the concentration at which the effect is half-maximal. In general, IC50 refers to the concentration needed to halve the response being measured.
